{
  "source": "paper PMC7536148",
  "about": "“Interactions of zearalanone, α-zearalanol, β-zearalanol, zearalenone-14-sulfate, and zearalenone-14-glucoside with serum albumin” (Mycotoxin Research, 2020)",
  "key": {"[1]": {"biological_target": "T1, porcine serum albumin (PSA) (Sus scrofa, UniProt P08835)", "T1 construct": "purchased Sigma-Aldrich", "T1 sequence (P08835 25-607)": "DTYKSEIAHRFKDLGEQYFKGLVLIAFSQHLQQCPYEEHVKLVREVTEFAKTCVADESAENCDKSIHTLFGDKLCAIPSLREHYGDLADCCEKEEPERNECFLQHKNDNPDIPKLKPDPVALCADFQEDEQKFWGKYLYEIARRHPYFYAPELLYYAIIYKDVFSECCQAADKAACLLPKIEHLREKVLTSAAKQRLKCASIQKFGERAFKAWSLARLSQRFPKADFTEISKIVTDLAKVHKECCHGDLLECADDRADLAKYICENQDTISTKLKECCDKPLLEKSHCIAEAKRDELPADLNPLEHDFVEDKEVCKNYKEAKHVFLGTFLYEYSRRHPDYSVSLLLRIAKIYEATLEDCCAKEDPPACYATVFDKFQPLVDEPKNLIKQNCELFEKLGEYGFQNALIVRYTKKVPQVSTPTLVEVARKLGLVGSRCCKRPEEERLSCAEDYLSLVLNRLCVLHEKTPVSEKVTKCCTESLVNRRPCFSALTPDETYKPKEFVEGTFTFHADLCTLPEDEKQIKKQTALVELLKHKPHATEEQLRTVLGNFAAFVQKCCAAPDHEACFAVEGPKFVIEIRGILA", "assay": "Fluorescence quenching of porcine serum albumin by mycotoxins", "assay_type": "binding", "description": "(§1) Fluorescence spectroscopic measurements were carried out employing a Hitachi F-4500 fluorescence spectrophotometer (Hitachi, Tokyo, Japan) to investigate the effect of increasing mycotoxin concentrations on the fluorescence signal of albumins as well as on the emission spectrum of warfarin-HSA complex. Our studies were executed in phosphate-buffered saline (PBS, pH 7.4; 8.00 g/L NaCl, 0.20 g/L KCl, 1.81 g/L Na2HPO4 × 2H2O, 0.24 g/L KH2PO4) at room temperature, in the presence of air.\n(§2) For spectral correction of fluorescence emission intensities, absorption spectra of mycotoxins were also recorded applying a Jasco-V730 spectrophotometer (Jasco, Tokyo, Japan). The inner-filter effect of mycotoxins was corrected as described previously (Hu and Liu [2015]; Faisal et al. [2018]):1 Icor=Iobs×e^Aex+Aem/2 where Icor and Iobs indicate the corrected and observed fluorescence emission intensities, respectively. Aex and Aem denote the absorbance of mycotoxins at the excitation and emission wavelengths used, respectively.\n(§3) To investigate the stability of mycotoxin-albumin complexes, mycotoxin-induced quenching effects on the intrinsic fluorescence of albumins were tested. The emission signal of albumins (2 μmol/L; λex = 295 nm; […]) were measured in the presence of increasing concentrations of mycotoxins (0.0, 1.0, 2.0, 3.0, 4.0, 5.0, 6.0, 7.0, 8.0, 9.0, and 10.0 μmol/L). Stern-Volmer quenching constants (KSV; unit: L/mol) were determined employing the Stern-Volmer equation (Ma et al. [2018]; Faisal et al. [2018]):2 I0/I=1+KSV×Q where Q is the concentration of the mycotoxin (unit: mol/L). I0 and I are the fluorescence emission signal of albumin in the absence and presence of mycotoxins, respectively. Z14S and Z14G exert fluorescence; their excitation and emission spectra, under different environmental conditions, have been reported previously (Faisal et al. [2019], [2020]).\n(§4) Binding constants (K; unit: L/mol) of mycotoxin-albumin complexes were determined by nonlinear fitting employing Hyperquad2006 software, as described in details in our previous studies (Sueck et al. [2018]; Faisal et al. [2018])."}, "warfarin-HSA complex [2]": {"biological_target": "T2, warfarin-HSA complex (Homo sapiens, UniProt P02768)", "T2 construct": "purchased Sigma-Aldrich", "T2 sequence (P02768 25-609, one chain of several)": "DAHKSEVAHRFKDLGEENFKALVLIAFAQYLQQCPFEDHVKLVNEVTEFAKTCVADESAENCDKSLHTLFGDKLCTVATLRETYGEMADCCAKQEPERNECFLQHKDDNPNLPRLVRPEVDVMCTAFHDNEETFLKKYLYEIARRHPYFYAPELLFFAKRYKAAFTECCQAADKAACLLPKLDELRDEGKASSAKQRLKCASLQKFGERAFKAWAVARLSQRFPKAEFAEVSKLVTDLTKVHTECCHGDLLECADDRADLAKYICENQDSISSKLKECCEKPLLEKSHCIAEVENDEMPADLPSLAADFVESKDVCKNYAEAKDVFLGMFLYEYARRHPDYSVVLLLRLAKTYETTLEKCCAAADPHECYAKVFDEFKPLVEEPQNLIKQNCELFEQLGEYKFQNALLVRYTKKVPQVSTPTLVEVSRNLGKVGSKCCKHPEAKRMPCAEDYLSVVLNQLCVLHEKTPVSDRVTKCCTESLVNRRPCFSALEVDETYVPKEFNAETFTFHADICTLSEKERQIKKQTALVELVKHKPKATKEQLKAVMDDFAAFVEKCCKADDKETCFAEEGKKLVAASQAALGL", "assay": "Effect of mycotoxins on warfarin-HSA interaction (warfarin fluorescence)", "assay_type": "binding", "conditions": "warfarin 1 μmol/L, HSA 3.5 μmol/L, mycotoxin 0-15 μmol/L, PBS pH 7.4, λex = 317 nm", "description": "as §1, §2\nTo test the effects of ZEN metabolites on warfarin-HSA interaction, our previously reported method was applied (Faisal et al. [2018]; Fliszár-Nyúl et al. [2019]). In this experiment, the fluorescence emission signal of warfarin (1 μmol/L; λex = 317 nm, λem = 379 nm) was examined in the presence of HSA (3.5 μmol/L) without and with mycotoxins (0, 1, 2, 3, 4, 5, 6, 8, 10, and 15 μmol/L) in PBS (pH 7.4). Under these conditions, approximately 70% of warfarin is albumin-bound."}, "HSA": {"biological_target": "T3, HSA (Homo sapiens, UniProt P02768)", "T3 construct": "purchased Daicel Chiralpak HSA, 50 × 3.0 mm, 5 μm", "T3 sequence (P02768 25-609)": "as the sequence (P02768 25-609, one chain of several) above", "assay": "High-performance affinity chromatography on HSA-coated column", "assay_type": "binding", "conditions": "Chiralpak HSA column, isopropanol / 0.01 mol/L ammonium acetate pH 7.0 (15:85 v/v%), 0.5 mL/min, room temperature", "description": "HPAC was performed with a HSA-coated column (Faisal et al. [2018]). The HPLC system (Jasco, Tokyo, Japan) used for the analysis included an autosampler (AS-4050), a binary pump (PU-4180), and a diode-array detector (MD-4017). A 5-μL volume of samples (ZAN: 200 μmol/L; ZEN, α-ZAL, β-ZAL, and Z14S: 100 μmol/L; Z14G: 50 μmol/L) was driven through a pre-column filter (Waters, Milford, MA, USA) linked to an immobilized HSA-coated HPAC column (Chiralpak® HSA, 50 × 3.0 mm, 5 μm; Daicel, Tokyo, Japan). The isocratic elution was performed with 0.5-mL/min flow rate at room temperature. The mobile phase contained isopropanol (HPLC grade; VWR, Debrecen, Hungary) and 0.01 mol/L pH 7.0 ammonium acetate buffer (15:85 v/v%). Mycotoxins were detected at 235 nm, and chromatograms were evaluated with ChromNAV software."}, "[3]": {"biological_target": "T4, human serum albumin (HSA) (Homo sapiens, UniProt P02768)", "T4 construct": "purchased Sigma-Aldrich", "T4 sequence (P02768 25-609)": "as the sequence (P02768 25-609, one chain of several) above", "assay": "Fluorescence quenching of human serum albumin by mycotoxins", "assay_type": "binding", "description": "as §1, §2, §3, §4"}, "rat serum albumin (RSA) [4]": {"biological_target": "T5, rat serum albumin (RSA) (Rattus norvegicus, UniProt P02770)", "T5 construct": "purchased Sigma-Aldrich", "T5 sequence (P02770 25-608)": "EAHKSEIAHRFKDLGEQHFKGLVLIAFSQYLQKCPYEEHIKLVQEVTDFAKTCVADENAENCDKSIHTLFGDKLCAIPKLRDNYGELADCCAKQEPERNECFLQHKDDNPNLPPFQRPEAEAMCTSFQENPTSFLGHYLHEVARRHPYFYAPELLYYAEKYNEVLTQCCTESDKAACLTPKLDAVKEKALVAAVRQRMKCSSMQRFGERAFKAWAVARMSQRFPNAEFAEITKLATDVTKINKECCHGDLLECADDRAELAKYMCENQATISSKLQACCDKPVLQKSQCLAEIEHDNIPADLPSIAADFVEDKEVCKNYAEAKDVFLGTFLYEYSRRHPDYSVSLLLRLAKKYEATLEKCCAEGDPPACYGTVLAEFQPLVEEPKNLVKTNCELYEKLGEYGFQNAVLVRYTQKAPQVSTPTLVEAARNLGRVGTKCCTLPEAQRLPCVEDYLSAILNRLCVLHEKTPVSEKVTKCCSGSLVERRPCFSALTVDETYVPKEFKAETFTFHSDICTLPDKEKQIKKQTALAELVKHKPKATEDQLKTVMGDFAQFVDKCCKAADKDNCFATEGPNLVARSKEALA", "assay": "Fluorescence quenching of rat serum albumin by mycotoxins", "assay_type": "binding", "description": "as §1, §2, §3, §4"}, "[5]": {"biological_target": "T6, bovine serum albumin (BSA) (Bos taurus, UniProt P02769)", "T6 construct": "purchased Sigma-Aldrich", "T6 sequence (P02769 25-607)": "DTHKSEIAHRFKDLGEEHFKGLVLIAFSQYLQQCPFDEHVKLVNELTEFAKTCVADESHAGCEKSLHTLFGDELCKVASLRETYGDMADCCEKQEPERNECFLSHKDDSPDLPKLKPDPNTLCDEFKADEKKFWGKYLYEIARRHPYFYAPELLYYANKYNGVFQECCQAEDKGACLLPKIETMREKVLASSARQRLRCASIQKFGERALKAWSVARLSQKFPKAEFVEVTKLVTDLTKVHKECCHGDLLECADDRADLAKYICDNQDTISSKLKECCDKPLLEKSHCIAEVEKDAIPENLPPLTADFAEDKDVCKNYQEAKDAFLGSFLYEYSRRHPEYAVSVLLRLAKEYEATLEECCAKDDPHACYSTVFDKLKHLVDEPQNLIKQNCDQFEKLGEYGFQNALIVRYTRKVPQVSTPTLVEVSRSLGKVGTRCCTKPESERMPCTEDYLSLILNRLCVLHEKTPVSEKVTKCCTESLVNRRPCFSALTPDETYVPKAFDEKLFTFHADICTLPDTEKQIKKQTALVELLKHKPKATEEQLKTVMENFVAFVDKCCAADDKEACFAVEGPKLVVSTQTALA", "assay": "Fluorescence quenching of bovine serum albumin by mycotoxins", "assay_type": "binding", "description": "as §1, §2, §3, §4"}, "estrogen receptors": {"tested_on": "estrogen receptors", "conditions": "ref EFSA 2017; Fleck et al. 2017; Frizzell et al. 2011; Filannino et al. 2011; cited from earlier work"}, "CaCo-2 cells": {"tested_on": "CaCo-2 cells", "design": "method as in Cirlini et al. 2016", "conditions": "ref Cirlini et al. 2016; cited from earlier work"}, "[6]": {"tested_on": "human, bovine, porcine, and rat serum albumins", "assay": "Fluorescence quenching, statements on all albumins tested together", "assay_type": "binding", "conditions": "albumins 2 μmol/L, mycotoxin 0-10 μmol/L, PBS, λex = 295 nm", "description": "as §1, §2\nTo investigate the stability of mycotoxin-albumin complexes, mycotoxin-induced quenching effects on the intrinsic fluorescence of albumins were tested. The emission signal of albumins (2 μmol/L; λex = 295 nm; […]) were measured in the presence of increasing concentrations of mycotoxins (0.0, 1.0, 2.0, 3.0, 4.0, 5.0, 6.0, 7.0, 8.0, 9.0, and 10.0 μmol/L). […]"}, "[7]": {"conditions": "pigs, cited from earlier work"}, "[8]": {"design": "method as in Sun et al. 2019", "conditions": "rats, ref Sun et al. 2019; cited from earlier work"}, "warfarin-HSA complex [9]": {"biological_target": "T2, warfarin-HSA complex", "design": "method as in Poór et al. 2017; Faisal et al. 2018", "conditions": "allosteric interaction with Sudlow's site I ligand; ref Poór et al. 2017; Faisal et al. 2018; cited from earlier work"}, "[10]": {"biological_target": "T1, porcine serum albumin (PSA)", "design": "method as in Faisal et al. (2018)", "conditions": "ref Faisal et al. (2018); cited from earlier work"}, "rat serum albumin (RSA) [11]": {"biological_target": "T5, rat serum albumin (RSA)", "design": "method as in Faisal et al. (2018)", "conditions": "ref Faisal et al. (2018); cited from earlier work"}, "[12]": {"design": "method as in EFSA 2014", "conditions": "ZEN equivalents for ZEN and its modified forms jointly; ref EFSA 2014; cited from earlier work"}, "[13]": {"biological_target": "T4, human serum albumin (HSA)", "design": "method as in Faisal et al. (2018)", "conditions": "ref Faisal et al. (2018); cited from earlier work"}, "[14]": {"biological_target": "T6, bovine serum albumin (BSA)", "design": "method as in Faisal et al. (2018)", "conditions": "ref Faisal et al. (2018); cited from earlier work"}, "[15]": {"design": "method as in Rai et al. 2019", "conditions": "ref Rai et al. 2019; cited from earlier work"}},
  "note": "“And” between values parts separate entries of the source, which are not always exact repeats. Identical values can stand only once. Like-named read-outs stand apart in the source and are kept apart here. Marks after values point to notes of the source that are not given here.",
  "data": [
    {"compound": "C[C@H]1CCC[C@H](O)CCCCCc2cc(O)cc(O)c2C(=O)O1", "note": "[α-ZAL, α-zearalanol]", "values": [
      {"measurement": "Kd", "setting": "[1]", "value": 41.7, "unit": "µM"},
      {"measurement": "logKSV ± SEM (Stern-Volmer quenching constant)", "setting": "[1]; PSA 2 μmol/L, PBS pH 7.4, room temperature, λex = 295 nm, λem = 340 nm", "value": "4.30 ± 0.05", "unit": "L/mol"},
      {"measurement": "effect on fluorescence emission signal of warfarin at 379 nm (warfarin-HSA interaction)", "setting": "warfarin-HSA complex [2]", "value": "considerably increased the emission signal of warfarin"},
      {"measurement": "retention time (tR) from HSA-HPAC affinity column", "setting": "HSA", "value": "5.3 min and 5.313 min"},
      {"measurement": "logKSV ± SEM (Stern-Volmer quenching constant)", "setting": "[3]; HSA 2 μmol/L, PBS pH 7.4, room temperature, λex = 295 nm, λem = 340 nm", "value": "4.50 ± 0.02", "unit": "L/mol"},
      {"measurement": "Kd", "setting": "[3]; logK ± SEM (binding constant of mycotoxin-albumin complex), HSA, quenching data, Hyperquad2006 fitting, 1:1 stoichiometry, PBS pH 7.4", "value": 28.2, "unit": "µM"},
      {"measurement": "Kd", "setting": "rat serum albumin (RSA) [4]", "value": 4.9, "unit": "µM"},
      {"measurement": "logKSV ± SEM (Stern-Volmer quenching constant)", "setting": "rat serum albumin (RSA) [4]; RSA 2 μmol/L, PBS pH 7.4, room temperature, λex = 295 nm, λem = 340 nm", "value": "5.21 ± 0.00", "unit": "L/mol"},
      {"measurement": "difference in binding affinity, RSA vs. BSA complex", "setting": "rat serum albumin (RSA) [4]; from binding constants of Table 2", "value": 9, "unit": "fold"},
      {"measurement": "Kd", "setting": "[5]", "value": 45.7, "unit": "µM"},
      {"measurement": "logKSV ± SEM (Stern-Volmer quenching constant)", "setting": "[5]; BSA 2 μmol/L, PBS pH 7.4, room temperature, λex = 295 nm, λem = 340 nm", "value": "4.20 ± 0.05", "unit": "L/mol"},
      {"measurement": "xenoestrogenic effects compared with ZEN", "setting": "estrogen receptors", "value": "considerably higher xenoestrogenic effects than ZEN"}
    ]},
    {"compound": "C[C@H]1CCCC(=O)CCC/C=C/c2cc(O[C@@H]3O[C@H](CO)[C@@H](O)[C@H](O)[C@H]3O)cc(O)c2C(=O)O1", "note": "[Z14G, Zearalenone-14-O-β-D-glucoside]", "values": [
      {"measurement": "absorption in CaCo-2 cell model", "setting": "CaCo-2 cells", "value": "considerably lower compared with ZEN"},
      {"measurement": "effect on fluorescence emission signal of warfarin at 379 nm (warfarin-HSA interaction)", "setting": "warfarin-HSA complex [2]", "value": "did not affect the fluorescence at 379 nm"},
      {"measurement": "retention time (tR) from HSA-HPAC affinity column", "setting": "HSA", "value": "1.7 min and 1.650 min"},
      {"measurement": "effect on the emission signals of albumins (quenching)", "setting": "[6]", "value": "did not affect the emission signals of albumins"},
      {"measurement": "fraction of the orally administered compound absorbed", "setting": "[7]; oral, ref Catteuw et al. 2019", "value": "approximately 61%"},
      {"measurement": "intestinal hydrolysis to ZEN after oral administration", "setting": "[7]; ref Binder et al. 2017", "value": "complete intestinal hydrolysis to ZEN"},
      {"measurement": "plasma concentrations after oral administration", "setting": "[8]", "value": "low plasma concentrations"}
    ]},
    {"compound": "C[C@H]1CCC[C@@H](O)CCC/C=C/c2cc(O)cc(O)c2C(=O)O1", "note": "[β-ZEL, β-zearalenol]", "values": [
      {"measurement": "effect on binding affinity of warfarin towards HSA", "setting": "warfarin-HSA complex [9]", "value": "decrease"}
    ]},
    {"compound": "C[C@H]1CCCC(=O)CCC/C=C/c2cc(O)cc(O)c2C(=O)O1", "note": "[ZEN, Zearalenone]", "values": [
      {"measurement": "effect on binding affinity of warfarin towards HSA", "setting": "warfarin-HSA complex [9]", "value": "increase"},
      {"measurement": "logK ± SEM (binding constant of mycotoxin-albumin complex)", "setting": "[10]", "value": "4.57 ± 0.01^a L/mol"},
      {"measurement": "logKSV ± SEM (Stern-Volmer quenching constant)", "setting": "[10]", "value": "4.56 ± 0.02^a L/mol"},
      {"measurement": "logK ± SEM (binding constant of mycotoxin-albumin complex)", "setting": "rat serum albumin (RSA) [11]", "value": "5.42 ± 0.00^a L/mol"},
      {"measurement": "logKSV ± SEM (Stern-Volmer quenching constant)", "setting": "rat serum albumin (RSA) [11]", "value": "5.50 ± 0.01^a L/mol"},
      {"measurement": "retention time (tR) from HSA-HPAC affinity column", "setting": "HSA", "value": "12.3 min and 12.267 min"},
      {"measurement": "human tolerable daily intake (TDI)", "setting": "[12]", "value": 0.25, "unit": "μg/kg body weight per day"},
      {"measurement": "logK ± SEM (binding constant of mycotoxin-albumin complex)", "setting": "[13]", "value": "5.1 L/mol and 5.09 ± 0.01^a L/mol"},
      {"measurement": "logKSV ± SEM (Stern-Volmer quenching constant)", "setting": "[13]", "value": "5.09 ± 0.01^a L/mol"},
      {"measurement": "logK ± SEM (binding constant of mycotoxin-albumin complex)", "setting": "[14]", "value": "4.78 ± 0.01^a L/mol"},
      {"measurement": "logKSV ± SEM (Stern-Volmer quenching constant)", "setting": "[14]", "value": "4.81 ± 0.01^a L/mol"},
      {"measurement": "IARC carcinogen classification", "setting": "[15]", "value": "group 3 carcinogen"}
    ]}
  ]
}
